The results in this text go back to paper PMC11315935, “Multi-layered heterochromatin interaction as a switch for DIM2-mediated DNA methylation” (Nature Communications, 2024).

Experiment [1] has as its system (CTA)12/(TAG)12 36-mer DNA duplex. In words: In vitro DNA methylation assay of DIM2 (WT or mutant). On the set-up: DNA methylation activity: unit not given here. In kind it is biochemical. The conditions noted are these: 30 min.
The subject of a further experiment is HP1. As to the kind of experiment: Size-exclusion chromatography of DIM2-HP1 complex. The format is binding, Neurospora Crassa. The conditions noted are these: 1.0 µM DIM2 and/or 2.5 µM HP1, Superdex 200 increase 10/300 GL, pH 7.5. The protocol:
For size-exclusion chromatography analysis, 400 µL of the sample mixture containing 1.0 µM DIM2 and/or 2.5 µM HP1 was loaded onto Superdex 200 increase 10/300 GL column (GE Healthcare) and eluted at a flow rate of 0.5 mL/min, in the buffer containing 20 mM Tris-HCl (pH 7.5), 100 mM NaCl, 5% glycerol, and 5 mM DTT. The proteins in each fraction were then visualized by SDS-PAGE.
A general note: In gel filtration, larger molecules generally elute earlier.

The target in a further experiment is DIM2, W261A/W581A. As to the kind of experiment: ITC binding of H3K9me3 peptide, DIM2 W261A/W581A. On the set-up: species or system Neurospora Crassa. The conditions noted are these: 7 °C, pH 7.5, NDB, no detectable binding. Here is the method:
(§1) ITC measurements were performed using a MicroCal iTC200 instrument (GE Healthcare). To measure the bindings between proteins and H3K9me3 peptide, 0.04–0.05 mM DIM2, WT or mutant (W261A, W581A, or W261A/W581A), DIM2 RFTS domain, or HP1, WT or mutant (W98A), was titrated with 0.5 mM histone peptide at 7 °C. Prior to the titration, both peptide and protein samples were subjected to overnight dialysis against buffer containing 20 mM Tris-HCl (pH 7.5), 100 mM NaCl, and 1 mM β-mercaptoethanol. Buffer to buffer titration was performed to ensure no abnormality of baseline. Analyses of all data were performed with MicroCal Origin software, fitted with single-site binding mode.

For a further experiment, the system named is DIM2. In words: In vitro DNA methylation assay: effect of HP1 and H3 peptides on DIM2 activity. The format is biochemical, Neurospora Crassa. To be noted: 36-mer DNA duplex, 1.0 µM peptide and/or 2 µM HP1. The protocol: In vitro DNA methylation assay was performed in a 20-µL reaction mixture. For the substrate specificity assay, the following DNA duplexes were used as substrates: CG DNA (Upper strand: 5’-[…]-3’), hemimethylated CG DNA (Upper strand: 5’-TAAATTTXGATTAATAAT-3’, X = 5-methylcytosine; Lower strand: 5’-[…] -3’), CHG DNA (Upper strand: 5’-[…]-3’), and CHH DNA (Upper strand: 5’-[…]-3’). The reaction mixture contains 0.25 µM DIM2, 1.0 µM DNA duplex, 1.0 µM synthesized H3K9me3 peptide (residues 1-24 of H3 plus a C-terminal tryptophan), 0.5 µM HP1, and 0.56 µM S-adenosyl-L-[methyl-^3H] methionine with a specific activity of 18 Ci/mmol (PerkinElmer) in buffer containing 50 mM Tris-HCl (pH 8.0), 100 mM NaCl, 0.05% β-mercaptoethanol, 5% glycerol, and 200 µg/mL BSA. For the rest of the DNA methylation assay, each reaction mixture contains 1.0 µM DIM2, […] methionine with a specific activity of 18 Ci/mmol (PerkinElmer) in buffer containing 50 mM Tris-HCl (pH 8.0), 100 mM NaCl, 0.05% β-mercaptoethanol, 5% glycerol, and 200 µg/mL BSA. In addition, 1.0 µM synthesized H3K9me3 or H3K9me0 peptide (residues 1-24 of H3 plus a C-terminal tryptophan) and/or 2 µM HP1 protein was included to evaluate the effect of H3 and HP1 regulation. The reaction mixture was incubated at 30 °C for 30 min, unless indicated otherwise, before being quenched by the addition of 5 µL of 10 mM cold SAM. After the reaction, 8 μL of the mixtures was loaded onto Hybond N nylon membrane (GE Healthcare), which was left to dry out at room temperature. The membrane was subsequently washed with 0.2 M ammonium bicarbonate (pH 8.2) two times (20 min per time), deionized water (20 min) once, and 95% ethanol (5 min) once. After air dried, the membrane carrying each sample was transferred into a vial containing 3 mL scintillation buffer (Fisher). The tritium scintillation was measured and recorded by a Beckman LS6500 counter. Each the reaction was repeated three times.

For another experiment, the system named is DIM2, W261A. As to the kind of experiment: ITC binding of H3K9me3 peptide, DIM2 W261A. Details: species or system Neurospora Crassa. The protocol: as §1
The subject of a further experiment is DIM2, W581A. In words: ITC binding of H3K9me3 peptide, DIM2 W581A. On the set-up: species or system Neurospora Crassa. Here is the method:
as §1

Turning to “DIM2WT: Neurospora Crassa DIM2 (NCBI accession no. XP_959891.1) (residues 1-1242)”, the “DNA methylation activity of DIM2 (in words)” value in experiment [1] (1.0 µM DIM2, 30 °C, pH 8.0) is “no detectable activity”. For the same substance, the DNA methylation activity in experiment [1] (Fig. 1b, 1.0 µM DIM2, 1.0 µM DNA duplex, 0.56 µM [methyl-3H]SAM, 1.0 µM H3 peptide and/or 2 µM HP1, pH 8.0, 30 °C, tritium scintillation, replicate 1) was -0.021; in experiment [1] (Fig. 1b, 1.0 µM DIM2, 1.0 µM DNA duplex, 0.56 µM [methyl-3H]SAM, 1.0 µM H3 peptide and/or 2 µM HP1, pH 8.0, 30 °C, tritium scintillation, replicate 2), -0.01; in experiment [1] (Fig. 1b, 1.0 µM DIM2, 1.0 µM DNA duplex, 0.56 µM [methyl-3H]SAM, 1.0 µM H3 peptide and/or 2 µM HP1, pH 8.0, 30 °C, tritium scintillation, replicate 3) it was -0.04; in experiment [1] (Fig. 2g, in the presence of HP1 (2 µM) and H3_1-24K9me3 peptide (1.0 µM), 1.0 µM DIM2, 30 °C, pH 8.0, replicate 1), 20.908; in experiment [1] (Fig. 2g, in the presence of HP1 (2 µM) and H3_1-24K9me3 peptide (1.0 µM), 1.0 µM DIM2, 30 °C, pH 8.0, replicate 2), 20.644; in experiment [1] (Fig. 2g, in the presence of HP1 (2 µM) and H3_1-24K9me3 peptide (1.0 µM), 1.0 µM DIM2, 30 °C, pH 8.0, replicate 3), 18.328. Besides, the DNA methylation activity in experiment [1] (Fig. 5f, DNA binding-associated mutants, 1.0 µM DIM2, 1.0 µM DNA duplex, 30 °C, pH 8.0, replicate 1) was 14.337; in experiment [1] (Fig. 5f, DNA binding-associated mutants, 1.0 µM DIM2, 1.0 µM DNA duplex, 30 °C, pH 8.0, replicate 2), 13.213; in experiment [1] (Fig. 5f, DNA binding-associated mutants, 1.0 µM DIM2, 1.0 µM DNA duplex, 30 °C, pH 8.0, replicate 3), 13.147; in experiment [1] (Fig. 3h, in the presence of HP1 (2 µM) and H3_1-24K9me3 peptide (1.0 µM), 1.0 µM DIM2, 30 °C, pH 8.0, replicate 1) it was 22.922; in experiment [1] (Fig. 3h, in the presence of HP1 (2 µM) and H3_1-24K9me3 peptide (1.0 µM), 1.0 µM DIM2, 30 °C, pH 8.0, replicate 2) it was 23.125; in experiment [1] (Fig. 3h, in the presence of HP1 (2 µM) and H3_1-24K9me3 peptide (1.0 µM), 1.0 µM DIM2, 30 °C, pH 8.0, replicate 3), 22.99. Also, the DNA methylation activity in experiment [1] (Fig. 6d, H3_1-24K9me3 binding-associated mutants, 1.0 µM DIM2, 1.0 µM DNA duplex, 30 °C, pH 8.0, replicate 1) is given as 19.42; in experiment [1] (Fig. 6d, H3_1-24K9me3 binding-associated mutants, 1.0 µM DIM2, 1.0 µM DNA duplex, 30 °C, pH 8.0, replicate 2), 16.017; in experiment [1] (Fig. 6d, H3_1-24K9me3 binding-associated mutants, 1.0 µM DIM2, 1.0 µM DNA duplex, 30 °C, pH 8.0, replicate 3) it was 17.874. In addition, the “DIM2-HP1 complex formation (in words)” value in the experiment with HP1 was “co-migration”.
“H31-24K9me3: synthesized H3K9me3 peptide (residues 1-24 of H3 plus a C-terminal tryptophan)”: the Kd result on DIM2, W261A/W581A was “NDB”; at DIM2, W261A/W581A (listed as H3K9me3 peptide), “complete abolishment”. Also, in the experiment on DIM2, the “effect on DNA methylation activity of DIM2 (in words)” value is reported as “failed to activate DIM2 appreciably”. Also, the “enhanced binding affinity vs WT DIM2” value with DIM2, W261A (W261A vs WT) is listed as ~ 2.3 fold. The “BAH1-H3K9me3 binding stronger than RFTS-H3K9me3 binding by” value in the experiment on DIM2, W261A (in the absence of DNA) was ~ 24 fold. The “reduction of peptide-binding affinity vs WT DIM2” value with DIM2, W581A is about 10 fold.
